Ends that are not written are not given here.
Assays:
rat MCH1 receptor = molecular target: T1, rat MCH1 receptor (Rattus norvegicus, UniProt P97639); test: Binding affinity (Ki) at the rat MCH1 receptor; conditions: Examples 142-153; read-out: Ki (nM) rMCH1
T1 construct: expressed in transfected cells

[1] = tested on: micturition reflex, anesthetized female Sprague Dawley rats; test: Distension-induced rhythmic contraction (DIRC) model; format: in vivo, rat; parameters: key: A = Produced a significant increase in contraction interval relative to pre-drug interval; conditions: contraction interval, i.v. or i.p.
Method: The effects of compounds on the micturition reflex were assessed in the “distension-induced rhythmic contraction” (DIRC), as described in previous publications (e.g. Maggi et al, 1987; Morikawa et al, 1992), and Continuous Slow Transvesicular Infusion (CSTI) models in rats.
Female Sprague Dawley rats weighing approximately 300 g were anesthetized with subcutaneous urethane (1.2 g/kg). The trachea was cannulated with PE240 tubing to provide a clear airway throughout the experiment. A midline abdominal incision was made and the left and right ureters were isolated. The ureters were ligated distally (to prevent escape of fluids from the bladder) and cannulated proximally with PE10 tubing. The incision was closed using 4-0 silk sutures, leaving the PE10 lines routed to the exterior for the elimination of urine. The bladder was canulated via the transurethral route using PE50 tubing inserted 2.5 cm beyond the urethral opening. This cannula was secured to the tail using tape and connected to a pressure transducer. To prevent leakage from the bladder, the cannula was tied tightly to the exterior urethral opening using 4-0 silk.
To initiate the micturition reflex, the bladder was first emptied by applying pressure to the lower abdomen, and then filled with normal saline in […] (maximum 2 ml) until spontaneous bladder contractions occurred (typically 20-40 mmHg at a rate of one contraction every 2 to 3 minutes. Once a regular rhythm was established, vehicle (saline) or Test Compounds were administered i.v. or i.p. to explore their effects on bladder activity. The 5-HT1A antagonist WAY-100635 was given as a positive control. Data were expressed as contraction interval (in seconds) before drug application (basal), or after the application of vehicle or test article.

[2] = tested on: micturition reflex, conscious male Sprague Dawley rats; test: Continuous Slow Transvesicular Infusion (CSTI) rat model; format: in vivo; parameters: key to Effect of MCH1 antagonist in the CSTI model: B = Produced an increase in bladder capacity in rats relative to baseline capacity; conditions: bladder capacity, intragastric
Method: The effects of compounds on the micturition reflex were assessed in the “distension-induced rhythmic contraction” (DIRC), as described in previous publications (e.g. Maggi et al, 1987; Morikawa et al, 1992), and Continuous Slow Transvesicular Infusion (CSTI) models in rats. Male Sprague Dawley rats weighing approximately 300 g were used for the study. Rats were anaesthetized with pentobarbitone sodium (50 mg/kg, i.p). Through a median abdominal incision, bladder was exposed and a polyethylene cannula (PE 50) was introduced into the bladder through a small cut on the dome of the bladder and the cannula was secured with a purse string suture. The other end of the cannula was exteriorized subcutaneously at the dorsal neck area. Similarly, another cannula (PE 50) was introduced into the stomach through a paramedian abdominal incision with the free end exteriorized subcutaneously to the neck region. The surgical wounds were closed with silk 4-0 suture and the animal was allowed to recover with appropriate post surgical care. On the following day, the animal was placed in a rat restrainer. The open end of the bladder cannula was connected to a pressure transducer as well as infusion pump through a three-way stopcock. The bladder voiding cycles were initiated by continuous infusion of normal saline at the rate of 100 ul/min. The repetitive voiding contractions were recorded on a Power Lab on-line data acquisition software. After recording the basal voiding pattern for an hour, the test drug or vehicle was administered directly into stomach through the intragastric catheter and the voiding cycles were monitored for 5 hours. Micturition pressure and frequency were calculated before and after the treatment (at every 30 min interval) for each animal. Bladder capacity was calculated from the micturition frequency, based on the constant infusion of 100 ul/min. The effect of the test drug was expressed as a percentage of basal, pre-drug bladder capacity. WAY 100635 was used as positive control for comparison.

human MCH1 receptor = human MCH1 receptor (Homo sapiens, UniProt Q99705); test: Binding of [125I]Phe13,Tyr19-MCH on MCH1-transfected Cos-7 cell membranes; parameters: expressed in transfected cells; host or cells: COS-7; conditions: 0.1 nM radioligand
Method: For binding assays, pellets of transfected cells are suspended in ice-cold buffer (20 mM Tris.HCl, 5 mM EDTA, pH 7.4) and homogenized by sonication for 7 sec. The cell lysates are centrifuged at 200×g for 5 min at 4° C. The supernatants are then centrifuged at 40,000×g for 20 min at 4° C. The resulting pellets are washed once in the homogenization buffer and suspended in binding buffer (see methods for radioligand binding). Protein concentrations are determined by the method of Bradford (1976) using bovine serum albumin as the standard. Binding assays are usually performed immediately, however it is possible to prepare membranes in batch and store frozen in liquid nitrogen for future use.
MCH1 binding experiments with membranes (20-40 μg membrane protein) from transfected cells are performed with 0.1 nM [^125I]Phe^13-Tyr^19-MCH (Custom labeled by NEN) using incubation buffer consisting of 50 mM Tris pH 7.4, 10MM MgCl2, 2 μg/ml aprotonin, 0.5 mM PMSF and 50 μg/ml bacitracin. Binding is performed at 25° C. for 1 hr. Incubations are terminated by rapid vacuum filtration over GF/C glass fiber filters, presoaked in 5% PEI using 50 mM Tris pH 7.4 containing 0.01% triton X-100 as wash buffer.
Specific [^125I]Phe^13-Tyr^19-MCH binding was about 70% of total binding at a radioligand concentration of 0.1 nM (FIG. 10).

[3] = tested on: MCH binding sites of G4F-7 cells; conditions: cited from earlier work

Chain of human MCH1 receptor (Q99705 whole entry): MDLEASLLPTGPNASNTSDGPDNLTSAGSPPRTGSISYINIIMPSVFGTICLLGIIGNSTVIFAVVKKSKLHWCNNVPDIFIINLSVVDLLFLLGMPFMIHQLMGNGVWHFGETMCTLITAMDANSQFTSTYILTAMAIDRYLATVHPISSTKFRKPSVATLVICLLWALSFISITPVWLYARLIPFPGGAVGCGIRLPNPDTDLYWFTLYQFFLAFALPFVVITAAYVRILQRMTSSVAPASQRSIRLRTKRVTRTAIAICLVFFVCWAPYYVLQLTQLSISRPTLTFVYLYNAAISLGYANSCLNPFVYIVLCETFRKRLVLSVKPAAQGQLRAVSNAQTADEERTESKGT
T1 sequence (P97639 whole entry): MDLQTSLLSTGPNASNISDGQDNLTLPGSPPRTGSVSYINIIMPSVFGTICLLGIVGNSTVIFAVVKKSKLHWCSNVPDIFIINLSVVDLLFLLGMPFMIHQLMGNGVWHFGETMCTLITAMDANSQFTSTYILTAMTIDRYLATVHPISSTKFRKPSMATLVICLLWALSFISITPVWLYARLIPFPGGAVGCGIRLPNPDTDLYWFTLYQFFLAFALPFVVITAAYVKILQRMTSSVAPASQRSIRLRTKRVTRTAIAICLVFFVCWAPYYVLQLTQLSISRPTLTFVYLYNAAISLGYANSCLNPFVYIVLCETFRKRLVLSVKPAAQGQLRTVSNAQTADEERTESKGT

Compound | Ki (rat MCH1 receptor) | Effect of MCH1 antagonist in the DIRC model [1] | Effect of MCH1 antagonist in the CSTI model [2] | other results
Cc1onc(-c2c(Cl)cccc2Cl)c1C(=O)NCCCCCN1CCC(c2cccc(NC(=O)C(C)C)c2)CC1 [Example 149] | 7.1 nM | A | B | 
CC(=O)c1cccc(O[C@H](CCN2CCC(c3cccc(NC(=O)C(C)C)c3)CC2)c2ccccc2)c1 [Example 151] | 3.8 nM | A | B | 
[^125I]Phe^13-Tyr^19-MCH: radioiodinated MCH analogue, custom labeled by NEN, radioligand of the MCH1 binding experiments |  |  |  | specific binding as share of total binding (human MCH1 receptor): about 70 % of total binding; specific binding (human MCH1 receptor; MCH1-transfected cells): about 80 fmol/mg membrane protein
rat ANF: rat ANF, weakly inhibited binding of the radioiodinated MCH analogue (SLRRSSCFGGRIDRIGAQSGLGCNSFRY; ends and bridges not checked; cysteine pairing not given here; UniProt P01161 123-150, looked up) |  |  |  | Ki ([3]; inhibition of binding of the radioiodinated ligand): 116 nM
α-MSH |  |  |  | inhibition of binding of the radioiodinated ligand [3]: not inhibited
